From patent US20090123389A1, “Methods for modulating Th17 cell development in the treatment and prevention of cellulite” (priority 2007, published 2009)
Values joined by “and” are separate entries in the source; they are usually repeats but may differ in a detail not shown here. Equal values may be shown once.

Experiments:
mTOR = test: Signaling downstream of mTOR in fibroblasts; assay type: cell-based
primary T cells = assay type: cell-based
Method: The non-specific cytoxicity of HF in both normal and transformed T-cells at high doses was evaluated. Anti-CD3/anti-CD28 activated primary T cells were harvested 6 days after activation and cultured in the presence of IL-2 with or without HF (100 nM). As a positive control, some T cells were cultured without IL-2 to induce apoptosis (FIG. 3A). Jurkat T cells, a transformed T cell leukemia line, were cultured in complete medium with or without HF (100 nM) as indicated (FIG. 3B). Both primary and Jurkat T cells were cultured for 30 hours and programmed cell death, i.e. apoptosis, was determined by Annexin V staining and propidium iodide (PI) uptake and cells were analyzed by flow cytometry. The percent of apoptotic T cells at each time point was plotted and was defined as Annexin V^+ PI^−. […] In further experiments, titrating amounts of HF were added to primary T cells and apoptosis was determine as above at the indicated time points. At 100 nM HF, but not 30 nM or lower, generalized T-cell apoptosis was observed (FIG. 3C).

[1] = cited from earlier work
[2] = system: human memory T cells (CD4+ CD45RO+); test: IL-17 and IFNγ expression by human memory T cells co-cultured with monocytes; assay type: cell-based; conditions: 100 nM HF, 6 days
Method: FIG. 10F is an illustration depicting purified primary human memory T cells (CD4^+ CD45RO^+) activated by anti-CD3/anti-CD28 coated beads in co-culture with CD14^+ monocytes and treated with DMSO, 100 nM HF or 100 nM MAZ1310. T cells were expanded for 6 days and intracellular cytokine expression was determined following restimulation with PMA plus ionomycin in the presence of brefeldin A.
Human T cell isolation and activation: Resting CD4^+ T cells were isolated from PBMC of healthy human donors using Dynal CD4 Positive Isolation Kit (Invitrogen, Carlsbad, Calif.) as previously described (M. Sundrud et al., Blood 106, 3440, 2005). CD4^+ cells were further purified to obtain memory T cells by staining with PE-conjugated anti-human CD45RO-PE antibodies (BD Biosciences), and sorting on a FACSAria cytometer (BD Biosciences). Following purification, cells were greater than 99% CD4^+ CD45RO^+. […] T cells were expanded in the presence HF or MAZ1310 as indicated for 6 days and intracellular cytokine expression was determined by intracellular staining.
Detection of cytokine production: Cytokines secreted into media supernatant were measured using the mouse Th1/Th2 cytometric bead array (CBA, BD Pharmingen) in accordance with manufacturers instructions. […]

[3] = human, in vivo; cited from earlier work
fibroblasts = test: Protein synthesis, proliferation and death of cultured fibroblasts; assay type: cell-based
splenocytes = test: In vivo activation of the AAR pathway in splenocytes of treated mice; set-up: species or system C57B/6 mice; conditions: 2.5 μg HF i.p., 6 hours post injection
Method: FIG. 20A is a graph depicting splenocytes from control- and HF-treated mice. C57B/6 mice were injected i.p. with vehicle (DMSO) or 2.5 μg HF. Spleens were harvested 6 hours post injection, red blood cells were lysed and total splenocytes were counted. Data are presented as mean cell counts±SD from 2 mice per group.
FIG. 20C is a graph depicting eIF2α expression in control- and HF-treated mice. Splenocytes from mice injected with DMSO or HF as above were harvested 6 hours post injection. Red blood cells were lysed and immunoblotting was performed on whole cell extracts for phosphorylated or total eIF2α as indicated.
FIG. 20D is a graph depicting the results of quantitative real-time PCR (qPCR) experiments performed for AAR-associated gene expression (Asns, Gpt2, eIF4Ebp1) using cDNA generated from splenocytes of mice injected with DMSO or HF as above. Expression of AAR-associated genes were normalized to Hprt levels and data are presented as mean relative expression from duplicate samples±SD.

O=C(CC1NCCCC1O)Cn1cnc2cc(Br)c(Cl)cc2c1=O (racemic) [HF, 7-bromo-6-chloro-3-[3-(3-hydroxy-2-piperidinyl)-2-oxopropyl]-4(3H)-quinazolinone]
signaling downstream of mTOR in fibroblasts (mTOR): did not inhibit | HF concentration at which generalized T-cell apoptosis was not observed (primary T cells): ≤ 30 nM | HF concentration at which generalized T-cell apoptosis was observed (primary T cells): 100 nM | peak plasma concentration ([1]; oral 3.5 mg/day): 3 ng/ml and ~8 nM | dose at which dose limiting toxicity (nausea and vomiting) occurred ([1]; oral): 3.5 mg/day | recommended tolerated dose for chronic treatment ([1]; oral): 0.5 mg/day | IFNγ expression by human T cells [2]: essentially unaffected | percentage of human T cells expressing IL-17 and amount of IL-17 produced [2]: greatly reduced | HF in serum during topical treatment [3]: undetectable in serum | concentrations that inhibit protein synthesis and cell proliferation of fibroblasts in culture (fibroblasts): over 80 nM | doses that do not cause death of cultured fibroblasts (fibroblasts; over a period of 5 days): up to 500 nM | eIF2α phosphorylation and AAR-associated gene expression in splenocytes of treated mice (splenocytes): rapidly activates
